# Source: patent US20240158418A1 (C4 Therapeutics, Inc., priority 2021, published 2024)
# Key:
# Assay type in all cases: cell-based
# [1] = biological target: T1, pY1068 EGFR L858R-T790M (Homo sapiens, UniProt P00533, L858R/T790M); assay: Phospho-EGFR (pY1068) inhibition HTRF, NCI-H1975; conditions: 6 hours, read-out: pEGFR IC50
# T1 construct: NCI-H1975 (harboring EGFR heterozygous L858R-T790M mutations); host or cells: NCI-H1975
# Text: (§1) NCI-H1975 (harboring EGFR heterozygous L858R-T790M mutations) and NCI-H3255 (harboring EGFR heterozygous L858R mutation) were purchased from ATCC and NCI, respectively. NCI-H1975+CS (harboring EGFR heterozygous L858R-T790M-C797S mutations) was generated using CRISPR technology to introduce the additional C797S mutation by Horizon Discovery. A431 (harboring EGFR wildtype) was purchased from ATCC. RPMI 1640 no-phenol red medium and fetal bovine serum (FBS) were purchased from Gibco (Grand Island, NY, USA). Cell culture flasks and 384-well microplates were acquired from VWR (Radnor, PA, USA). Phosphorylated (pY1068) EGFR and Total EGFR (using L858R-specific detection antibody and pan-EGFR antibody for EGFR mutant cell lines and EGFR wild-type cell lines, respectively) HTRF assay kits were purchased from Cisbio (Bedford, MA, USA).
# (§2) Degradation of EGFR protein containing L858R mutation or wild-type was determined based on quantification of FRET signal using a Total EGFR (L858R-specific or pan-EGFR detecting) HTRF assay kit. Phospho-EGFR (pEGFR) inhibition was determined based on quantification of FRET signal using a pY1068 EGFR HTRF assay kit. In separate assay plates, test compounds were added to the 384-well plate from a top concentration of 10 μM with 11 points, half log titration in duplicates. For each assay, 12.5 uL of cells suspended in assay media (RPMI 1640 no-phenol red medium+10% FBS) at cell densities indicated for each cell line in Table 8 below were dispensed using a multi-channel pipette to 384-well low volume white HTRF microplates containing a duplicate concentration range of test compounds and DMSO controls. The plates were kept at 37° C. with 5% CO2 for 6 hours and then incubated with either phospho EGFR or Total EGFR HTRF detection antibodies according to the cell line and EGFR mutant being assayed. Cells treated in the absence of the test compound were the negative control. Positive control was set by wells containing all reagents but no cells. FRET signal was acquired on EnVision™ Multilabel Reader (PerkinElmer, Santa Clara, CA, USA). Compound concentration that achieves 50% degradation and inhibition was reported as DC50 and IC50, respectively.
# [2] = test system: BaF3 cells expressing EGFR L858R-C797S; assay: Ba/F3 EGFR cell viability (CellTiter-Glo), L858R-C797S; conditions: Mus musculus, read-out: CTGlo (GI50)
# Text: (§3) RPMI 1640 media, cell culture flasks, and 384-well microplates were purchased from VWR (Radnor, PA, USA). Fetal bovine serum (FBS) was purchased from Life Technologies (Carlsbad, CA, USA) and CellTiter-Glo® was purchased from Promega (Madison, WI, USA). The Ba/F3 parental cell line was purchased from CrownBio (Santa Clara, CA). BaF3 cell lines ectopically expressing the EGFR mutations L858R, L858R-T790M, L858R-C797S, and L858R-T790M-C797S were purchased from CrownBio and EGFR mutations L858R-L718Q, L858R-T790M-L718Q, L858R-L792H, and L858R-T790M-L792H, were purchased from Signosis (Santa Clara, CA).
# (§4) Cell viability was assessed based on the quantification of ATP using the CellTiter-Glo® assay (Promega, Madison, WI, USA). To determine the effect of compounds on cell viability, all Ba/F3 cell lines were plated at a cell density of 2000 cells/well in 384-well plates using RPMI 1640+10% FBS and treated with compounds of interest using a 10-point half-log dilution series in duplicate for 72 hours, with the highest dose set at […]. CellTiter-Glo® reagent was then added and luminescence signals were measured using an EnVision™ Multimode plate reader (Perkin Elmer, Santa Clara, CA). For data normalization, cells untreated with the test compounds at Time=72 hours were set to 100% (equivalent to maximal cell growth after 72 hours); cells untreated with the test compounds at Time=0 hours were set to 0% (equivalent to cytostasis); and media-only wells were set to −100% (equivalent to complete cytotoxicity). % Viability was determined by normalizing the signal with positive and DMSO treated negative controls on the same microtiter plate. The half-maximal inhibition of cell growth (GI50) is computed from where the fitted curve crosses 50% while the half-maximal lethal dose (LD50) is computed from where the fitted curve crosses −50%.
# [3] = test system: BaF3 cells expressing EGFR L858R; assay: Ba/F3 EGFR cell viability (CellTiter-Glo), L858R; conditions: Mus musculus, read-out: CTGlo (GI50)
# Text: as §3, §4
# [4] = biological target: T2, EGFR L858R-T790M (Homo sapiens, UniProt P00533, L858R/T790M); assay: EGFR degradation, Total EGFR (L858R-specific) HTRF, NCI-H1975; conditions: Table 9A; NCI-H1975 cells, 6 hours, Total EGFR HTRF; read-out: H1975 EGFR DC50
# T2 construct: NCI-H1975 (harboring EGFR heterozygous L858R-T790M mutations); host or cells: NCI-H1975
# Procedure, shortened: (§5)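 FRET signal from HTRF kits measured phospho-EGFR at pY1068 or total EGFR after 6 h treatment at 37 °C. Compounds ran as 11-point half-log dilutions from 10 μM in duplicate, in cells in phenol red-free RPMI with 10% FBS. Concentrations giving 50% inhibition or degradation were reported as IC50 or DC50.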
# [5] = test system: BaF3 cells expressing wild-type EGFR; assay: Ba/F3 EGFR cell viability (CellTiter-Glo), wild-type EGFR; conditions: Mus musculus, Ba/F3 WT EGFR, read-out: CTGlo (GI50)
# [6] = biological target: T3, EGFR L858R-T790M-C797S (Homo sapiens, UniProt P00533, C797S/L858R/T790M); assay: EGFR degradation, Total EGFR (L858R-specific) HTRF, NCI-H1975+CS; conditions: H1975 + CS (L858R-T790M-C797S), 6 hours; read-out: tEGFR DC50
# T3 construct: generated using CRISPR technology to introduce the additional C797S mutation by Horizon Discovery; host or cells: NCI-H1975+CS (CRISPR knock-in of C797S)
# Procedure, shortened: as §5
# [7] = test system: BaF3 cells expressing EGFR L858R-T790M-C797S; assay: Ba/F3 EGFR cell viability (CellTiter-Glo), L858R-T790M-C797S; conditions: Mus musculus, read-out: CTGlo (GI50)
# Text: as §3, §4
# [8] = test system: BaF3 cells expressing EGFR L858R-T790M; assay: Ba/F3 EGFR cell viability (CellTiter-Glo), L858R-T790M; conditions: Mus musculus, read-out: CTGlo (GI50)
# Text: as §3, §4
# [9] = biological target: EGFR L858R (Homo sapiens, UniProt P00533, L858R); assay: EGFR degradation, Total EGFR (L858R-specific) HTRF, NCI-H3255; parameters: NCI-H3255 (harboring EGFR heterozygous L858R mutation); host or cells: NCI-H3255; conditions: H3255 (L858R), 6 hours; read-out: tEGFR DC50
# Procedure, shortened: as §5
# [10] = biological target: T4, pY1068 EGFR L858R (Homo sapiens, UniProt P00533, L858R); assay: Phospho-EGFR (pY1068) inhibition HTRF, NCI-H3255; conditions: 6 hours, read-out: pEGFR IC50
# T4 construct: NCI-H3255 (harboring EGFR heterozygous L858R mutation); host or cells: NCI-H3255
# Text: as §1, §2
# [11] = biological target: T5, EGFR WT (Homo sapiens, UniProt P00533); assay: EGFR degradation, Total EGFR (pan-EGFR) HTRF, A431; conditions: A431 (wild-type), 6 hours; read-out: tEGFR DC50
# T5 construct: A431 (harboring EGFR wildtype) was purchased from ATCC; host or cells: A431
# Text: as §1, §2
# [12] = biological target: T6, pY1068 EGFR L858R-T790M-C797S (Homo sapiens, UniProt P00533, C797S/L858R/T790M); assay: Phospho-EGFR (pY1068) inhibition HTRF, NCI-H1975+CS; conditions: 6 hours, read-out: pEGFR IC50
# T6 construct: generated using CRISPR technology to introduce the additional C797S mutation by Horizon Discovery; host or cells: NCI-H1975+CS (CRISPR knock-in of C797S)
# Text: as §1, §2
# Chain of EGFR L858R (P00533 25-1210 L858R): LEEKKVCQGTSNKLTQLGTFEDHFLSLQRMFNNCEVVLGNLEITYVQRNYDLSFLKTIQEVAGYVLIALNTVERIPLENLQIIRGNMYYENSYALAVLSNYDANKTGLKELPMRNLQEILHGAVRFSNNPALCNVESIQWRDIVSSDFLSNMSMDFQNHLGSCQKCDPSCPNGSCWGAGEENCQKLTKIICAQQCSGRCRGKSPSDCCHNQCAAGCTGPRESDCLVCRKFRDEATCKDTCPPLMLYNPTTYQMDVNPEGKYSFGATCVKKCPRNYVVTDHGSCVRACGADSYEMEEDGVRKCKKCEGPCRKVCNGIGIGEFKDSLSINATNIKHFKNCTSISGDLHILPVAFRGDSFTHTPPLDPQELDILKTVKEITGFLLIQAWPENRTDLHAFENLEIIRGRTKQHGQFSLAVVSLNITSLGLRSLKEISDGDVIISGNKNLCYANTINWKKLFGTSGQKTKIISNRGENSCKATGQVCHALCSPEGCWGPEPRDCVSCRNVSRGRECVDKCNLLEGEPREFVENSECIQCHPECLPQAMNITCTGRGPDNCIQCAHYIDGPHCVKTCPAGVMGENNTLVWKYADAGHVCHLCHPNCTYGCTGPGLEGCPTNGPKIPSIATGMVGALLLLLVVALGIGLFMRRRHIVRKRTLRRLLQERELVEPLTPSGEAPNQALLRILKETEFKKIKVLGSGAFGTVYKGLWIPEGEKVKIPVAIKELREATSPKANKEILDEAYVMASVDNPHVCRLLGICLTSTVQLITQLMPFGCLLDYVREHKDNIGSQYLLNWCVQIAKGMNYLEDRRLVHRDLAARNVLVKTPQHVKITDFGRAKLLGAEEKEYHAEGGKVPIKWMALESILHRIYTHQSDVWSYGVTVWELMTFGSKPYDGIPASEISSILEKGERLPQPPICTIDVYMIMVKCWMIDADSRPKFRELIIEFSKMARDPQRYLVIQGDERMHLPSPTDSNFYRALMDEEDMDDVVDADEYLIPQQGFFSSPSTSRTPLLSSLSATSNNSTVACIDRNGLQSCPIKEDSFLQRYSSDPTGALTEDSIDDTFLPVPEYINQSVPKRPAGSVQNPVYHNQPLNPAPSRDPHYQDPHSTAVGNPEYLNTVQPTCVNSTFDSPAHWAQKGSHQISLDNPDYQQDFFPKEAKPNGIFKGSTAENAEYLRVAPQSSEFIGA
# T4 sequence (P00533 25-1210 L858R): as above
# T6 sequence (P00533 25-1210 T790M/C797S/L858R): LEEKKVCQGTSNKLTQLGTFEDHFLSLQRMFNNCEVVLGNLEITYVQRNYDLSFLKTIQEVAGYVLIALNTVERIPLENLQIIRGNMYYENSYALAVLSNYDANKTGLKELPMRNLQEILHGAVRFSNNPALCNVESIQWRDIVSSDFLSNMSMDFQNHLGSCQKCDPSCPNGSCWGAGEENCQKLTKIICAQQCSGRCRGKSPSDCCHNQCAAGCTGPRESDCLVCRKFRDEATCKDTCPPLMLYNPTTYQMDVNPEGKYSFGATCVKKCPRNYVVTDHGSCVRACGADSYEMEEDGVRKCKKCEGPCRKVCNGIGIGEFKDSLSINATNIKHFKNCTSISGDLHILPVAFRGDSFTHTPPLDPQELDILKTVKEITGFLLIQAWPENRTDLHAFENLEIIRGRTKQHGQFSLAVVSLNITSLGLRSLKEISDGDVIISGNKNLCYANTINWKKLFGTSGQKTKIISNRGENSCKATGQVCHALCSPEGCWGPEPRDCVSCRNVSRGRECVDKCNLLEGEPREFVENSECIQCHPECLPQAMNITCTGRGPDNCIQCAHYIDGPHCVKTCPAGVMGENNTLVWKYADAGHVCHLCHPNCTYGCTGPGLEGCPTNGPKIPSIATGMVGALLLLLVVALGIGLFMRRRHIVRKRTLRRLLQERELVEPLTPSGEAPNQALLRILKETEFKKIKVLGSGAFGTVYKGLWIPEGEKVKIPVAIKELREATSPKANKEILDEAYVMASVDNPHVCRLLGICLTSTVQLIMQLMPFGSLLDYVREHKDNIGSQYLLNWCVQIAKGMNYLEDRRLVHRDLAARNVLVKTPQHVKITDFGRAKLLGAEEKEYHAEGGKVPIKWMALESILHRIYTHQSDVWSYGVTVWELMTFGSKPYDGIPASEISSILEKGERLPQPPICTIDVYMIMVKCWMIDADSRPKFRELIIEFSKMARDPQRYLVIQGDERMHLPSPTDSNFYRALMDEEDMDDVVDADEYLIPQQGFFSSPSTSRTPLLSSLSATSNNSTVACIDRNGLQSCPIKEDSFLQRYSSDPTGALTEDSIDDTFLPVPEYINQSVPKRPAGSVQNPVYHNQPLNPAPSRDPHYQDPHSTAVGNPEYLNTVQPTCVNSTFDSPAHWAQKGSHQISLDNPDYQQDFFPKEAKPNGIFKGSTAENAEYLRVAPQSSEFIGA
# T3 sequence (P00533 25-1210 T790M/C797S/L858R): as above
SMILES,IC50 [1],GI50 [2],GI50 [3],DC50 [4],GI50 [5],DC50 [6],GI50 [7],GI50 [8],DC50 [9],IC50 [10],DC50 [11],IC50 [12]
"Cn1nc(N2CCC(=O)NC2=O)c2ccc(C3CCN(CC(=O)N4CC5(C4)CN(c4ccc(-c6cc(F)c7c(c6)C(=O)N(C(C(=O)Nc6nccs6)c6ncn8c6CCC8)C7)cc4)C5)CC3(F)F)cc21 (stereo not shown) [Compound 3, 2-(6,7-dihydro-5H-pyrrolo[1,2-c]imidazol-1-yl)-2-[6-[4-[2-[2-[4-[3-(2,4-dioxohexahydropyrimidin-1-yl)-1-methyl-indazol-6-yl]-3,3-difluoro-1-piperidyl]acetyl]-2,6-diazaspiro[3.3]heptan-6-yl]phenyl]-4-fluoro-1-oxo-isoindolin-2-yl]-N-thiazol-2-yl-acetamide]",11 nM,2 nM,3 nM,< 50 nM,248 nM,33 nM,3 nM,9 nM,8 nM,8 nM,> 10000 nM,19 nM
"Cn1nc(N2CCC(=O)NC2=O)c2ccc(C3CCN(CC(=O)N4CC5(C4)CN(c4ccc(-c6cc(F)c7c(c6)C(=O)N(C(C(=O)Nc6ccccn6)c6ncn8c6CCC8)C7)cc4)C5)CC3(F)F)cc21 (stereo not shown) [Compound 5, 2-(6,7-dihydro-5H-pyrrolo[1,2-c]imidazol-1-yl)-2-[6-[4-[2-[2-[4-[3-(2,4-dioxohexahydropyrimidin-1-yl)-1-methyl-indazol-6-yl]-3,3-difluoro-1-piperidyl]acetyl]-2,6-diazaspiro[3.3]heptan-6-yl]phenyl]-4-fluoro-1-oxo-isoindolin-2-yl]-N-(2-pyridyl)acetamide]",12 nM,–,–,< 50 nM,–,23 nM,–,–,22 nM,19 nM,> 10000 nM,22 nM
